Experimental data published in patent US20250346592A1 (Celgene Corporation, priority 2022, published 2025).

Experiments:
hPAD4 enzyme [1] = molecular target: T1, hPAD4 enzyme (Homo sapiens (Human), UniProt Q9UM07); test: RFMS1 assay (RapidFire mass spectrometry, BAEE substrate); type: biochemical; conditions: 5 nM hPAD4, 250 μM BAEE, 30 min preincubation at 37° C., 90 min reaction; read-out: RFMS 1 IC50
Method in brief: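 hPAD4 (5 nM) preincubated 30 min at 37° C. with compound, then 250 μM BAEE for 90 min at 37° C. in pH 7.5 HEPES buffer with 50 μM calcium, 1 mM DTT, 5 μM TPEN. TCA quench, phenyl glyoxal derivatisation; citrulline product measured by RapidFire MS, normalised to internal standard; IC50 values.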

hPAD4 enzyme [2] = molecular target: T1, hPAD4 enzyme; test: RFMS2 assay (RapidFire mass spectrometry, TSTGGRQGSHH peptide substrate); type: biochemical; conditions: 35 nM recombinant human PAD4, 500 μM TSTGGRQGSHH peptide, 30 minutes at room temperature; read-out: RFMS 2 IC50
Method in brief: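 IC50 derived from RapidFire LC-MS/MS (positive ESI MRM) of substrate versus product after a 30 min room-temperature reaction stopped with 10% formic acid. Reaction contained 35 nM human PAD4, 500 μM peptide, 2 mM CaCl2, 5 mM DTT at pH 7.4, and compounds diluted 3-fold from 20 μM.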

T1 sequence (Q9UM07 whole entry): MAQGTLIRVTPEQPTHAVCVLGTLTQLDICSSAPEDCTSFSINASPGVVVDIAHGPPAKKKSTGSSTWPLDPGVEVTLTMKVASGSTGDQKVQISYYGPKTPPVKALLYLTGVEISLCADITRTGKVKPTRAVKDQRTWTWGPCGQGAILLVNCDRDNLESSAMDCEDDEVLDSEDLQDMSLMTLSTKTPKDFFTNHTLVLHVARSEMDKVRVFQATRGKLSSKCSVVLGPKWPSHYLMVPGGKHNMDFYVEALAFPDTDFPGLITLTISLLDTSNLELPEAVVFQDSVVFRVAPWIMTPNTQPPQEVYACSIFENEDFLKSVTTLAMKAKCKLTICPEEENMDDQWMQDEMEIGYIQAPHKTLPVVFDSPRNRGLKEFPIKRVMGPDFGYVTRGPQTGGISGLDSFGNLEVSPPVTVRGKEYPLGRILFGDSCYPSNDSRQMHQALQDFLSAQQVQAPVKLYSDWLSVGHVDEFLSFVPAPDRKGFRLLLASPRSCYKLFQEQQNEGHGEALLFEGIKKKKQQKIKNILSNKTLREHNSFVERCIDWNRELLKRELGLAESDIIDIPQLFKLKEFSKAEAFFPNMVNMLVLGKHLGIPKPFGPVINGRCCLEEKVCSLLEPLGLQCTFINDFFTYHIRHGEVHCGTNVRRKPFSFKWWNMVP

SMILES	IC50 (hPAD4 enzyme [1]) [nM]	IC50 (hPAD4 enzyme [2]) [nM]
COc1cccc2cc(-c3nc4cc5c(cc4n3C)CCN(C[C@H]3COCCN3)C5=O)n(CC3CC3)c12 [Example 231, (S)-2-(1-(cyclopropylmethyl)-7-methoxy-1H-indol-2-yl)-1-methyl-6-(morpholin-3-ylmethyl)-1,6,7,8-tetrahydro-5H-imidazo[4,5-g]isoquinolin-5-one]	101 to 500	501 to 1000
Cn1c(-c2cc3cccc(OCCn4cnnc4)c3n2CC2CC2)nc2cc3c(cc21)CCN(C[C@H]1COCCN1)C3=O [Example 234, 2-[1-(cyclopropylmethyl)-7-[2-(1,2,4-triazol-4-yl)ethoxy]indol-2-yl]-1-methyl-6-[[(3S)-morpholin-3-yl]methyl]-7,8-dihydroimidazo[4,5-g]isoquinolin-5-one]	11 to 100	501 to 1000
C[C@@H](N)CN1CCc2c(cc3nc(-c4cc5ccccc5n4CC4CC4)n(C)c3c2F)C1=O [Example 237, (R)-6-(2-aminopropyl)-2-(1-(cyclopropylmethyl)-1H-indol-2-yl)-9-fluoro-1-methyl-1,6,7,8-tetrahydro-5H-imidazo[4,5-g]isoquinolin-5-one]	101 to 500	101 to 500

The remaining lines, values ahead:

IC50 (hPAD4 enzyme [1]) [nM]	IC50 (hPAD4 enzyme [2]) [nM]	SMILES
501 to 1000	101 to 500	CN[C@H](C)CN1CCc2cc3c(cc2C1=O)nc(-c1cc2cccc(OCC4CNC(=O)C4)c2n1CC1CC1)n3C (stereo partly drawn) [Example 229, 2-(1-(cyclopropylmethyl)-7-((5-oxopyrrolidin-3-yl)methoxy)-1H-indol-2-yl)-1-methyl-6-((R)-2-(methylamino)propyl)-1,6,7,8-tetrahydro-5H-imidazo[4,5-g]isoquinolin-5-one]
101 to 500	101 to 500	COc1cccc2cc(-c3nc4cc5c(cc4n3C)CCN(C[C@H]3COCCN3)C5=O)n(Cc3ncco3)c12 [Example 232, (S)-2-(7-methoxy-1-(oxazol-2-ylmethyl)-1H-indol-2-yl)-1-methyl-6-(morpholin-3-ylmethyl)-1,6,7,8-tetrahydro-5H-imidazo[4,5-g]isoquinolin-5-one]
101 to 500	501 to 1000	Cn1c(-c2cc3ccccc3n2CC2CC2)nc2cc3c(c(F)c21)CCN(C[C@H](N)CF)C3=O [Example 236, (S)-6-(2-amino-3-fluoropropyl)-2-(1-(cyclopropylmethyl)-1H-indol-2-yl)-9-fluoro-1-methyl-1,6,7,8-tetrahydro-5H-imidazo[4,5-g]isoquinolin-5-one]
11 to 100	101 to 500	COc1cccc2cc(-c3nc4cc5c(c(F)c4n3C)CCN(C[C@H](N)CF)C5=O)n(CC3CC3)c12 [Example 238, (S)-6-(2-amino-3-fluoropropyl)-2-(1-(cyclopropylmethyl)-7-methoxy-1H-indol-2-yl)-9-fluoro-1-methyl-1,6,7,8-tetrahydro-5H-imidazo[4,5-g]isoquinolin-5-one]
